Results from patent US20080026996A1, “Selective Vpac2 Receptor Reptide Agonists” (ELI LILLY AND COMPANY, priority 2004, published 2008).
pEC50, pIC50: −log10 of the molar value. Where a SMILES comes first, the peptide text is derived from it. Where no end group is shown, it is not given here. [ ]: non-standard residue; d: D form. The star is where a group is joined. Hexanoyl = CCCCCC(=O)*; Aib = CC(C)(N)C(=O)O

Tests used:
[1] = target: T1, human VPAC2 (Homo sapiens, UniProt P41587); test: Alpha screen cAMP in vitro potency, human VPAC2 receptor; assay type: cell-based; details: cAMP generation; single result from two analyses performed in a single run; read-out: Human VPAC2 Receptor: Alpha Screen EC50
T1 construct: expressed in transfected cells
T1 sequence (P41587 24-438): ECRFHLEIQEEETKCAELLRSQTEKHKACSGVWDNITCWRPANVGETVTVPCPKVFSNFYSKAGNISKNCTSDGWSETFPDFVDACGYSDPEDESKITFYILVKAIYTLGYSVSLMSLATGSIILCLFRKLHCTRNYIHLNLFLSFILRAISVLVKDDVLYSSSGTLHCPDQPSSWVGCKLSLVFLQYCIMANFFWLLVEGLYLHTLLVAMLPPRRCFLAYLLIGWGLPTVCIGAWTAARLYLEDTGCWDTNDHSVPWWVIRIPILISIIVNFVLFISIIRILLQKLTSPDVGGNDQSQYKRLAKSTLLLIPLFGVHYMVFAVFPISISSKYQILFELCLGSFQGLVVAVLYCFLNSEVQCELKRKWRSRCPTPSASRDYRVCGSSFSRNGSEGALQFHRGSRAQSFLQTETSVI
Outline: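 Under reduced light, acceptor beads accompany the stimuli during a 60-minute incubation of cells in stimulation buffer (50,000 per well point). Donor beads go in with lysis buffer for a further 60–120 minutes, and the resulting AlphaScreen signal indicates cAMP levels.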

[2] = target: T1, human VPAC2; test: Filter binding assay, membranes of stable VPAC2 cell line, 125I-labeled VIP tracer (Table 2); details: read-out: Human VPAC2 Receptor Binding
Outline: (§1)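 Radioligand displacement was measured with 2.5 μg membrane protein per well and roughly 40000 cpm of iodinated tracer. After a 1-hour incubation, bound and free label were separated on BSA-blocked glass-fibre filters and quantified by scintillation.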

[3] = Rat serum stability studies (remaining active peptide by DiscoveRx cAMP on CHO-VPAC2 cells); assay type: in vitro ADME
Outline: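 EC50 from a DiscoveRx cAMP read-out on CHO-VPAC2 cells indexes how much peptide stays active after 18 h in rat serum at 37° C without aprotinin, against an aprotinin-protected 4° C aliquot.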

[4] = target: T2, human VPAC1 (Homo sapiens, UniProt P32241); test: Filter binding assay, membranes of cells transiently transfected with human VPAC1, 125I-labeled VIP tracer (Table 2); design: expressed in transfected cells; details: read-out: Human VPAC1 Receptor Binding
T2 sequence (P32241 31-457): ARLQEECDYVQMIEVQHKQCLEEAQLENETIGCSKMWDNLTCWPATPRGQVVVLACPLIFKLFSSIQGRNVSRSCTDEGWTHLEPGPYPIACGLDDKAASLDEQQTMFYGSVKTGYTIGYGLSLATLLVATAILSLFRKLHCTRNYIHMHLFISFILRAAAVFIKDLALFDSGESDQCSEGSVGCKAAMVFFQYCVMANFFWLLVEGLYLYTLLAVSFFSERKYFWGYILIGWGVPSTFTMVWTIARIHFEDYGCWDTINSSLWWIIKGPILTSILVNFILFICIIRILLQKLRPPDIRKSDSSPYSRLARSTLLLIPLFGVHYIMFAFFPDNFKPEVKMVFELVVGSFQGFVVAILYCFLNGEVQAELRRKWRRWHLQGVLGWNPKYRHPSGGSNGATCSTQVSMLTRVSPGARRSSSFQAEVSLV
Outline: as §1

[5] = target: T3, human PAC1 (Homo sapiens, UniProt P41586); test: Filter binding assay, membranes of cells transiently transfected with human PAC1, 125I-labeled PACAP-27 tracer (Table 2); design: expressed in transfected cells; details: read-out: Human PAC1 Receptor Binding
T3 sequence (P41586 21-468): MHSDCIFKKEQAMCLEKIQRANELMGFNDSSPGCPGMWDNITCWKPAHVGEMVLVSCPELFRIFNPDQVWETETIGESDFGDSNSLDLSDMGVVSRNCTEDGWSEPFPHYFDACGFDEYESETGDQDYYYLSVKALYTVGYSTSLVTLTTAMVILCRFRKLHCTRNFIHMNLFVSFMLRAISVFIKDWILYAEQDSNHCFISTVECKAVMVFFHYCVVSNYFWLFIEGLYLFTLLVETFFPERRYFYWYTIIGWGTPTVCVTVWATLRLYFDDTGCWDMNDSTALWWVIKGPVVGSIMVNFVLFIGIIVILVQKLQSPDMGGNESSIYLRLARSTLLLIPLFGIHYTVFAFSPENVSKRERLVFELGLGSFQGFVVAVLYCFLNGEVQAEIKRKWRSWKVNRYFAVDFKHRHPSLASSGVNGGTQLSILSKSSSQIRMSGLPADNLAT
Outline: as §1

Row | Compound | pEC50 [1] | pIC50 [2] | Rat Serum Stability (estimated purity in % after 18 hours) [3] [%] | pIC50 [4] | pIC50 [5]
1 | Hexanoyl-HSDAVFTDNYTRLQKQVAA[Aib]KYLQSIKNKRYGGPSSGAPPPS [Agonist P250] | 9.74 | 9.20 | 7.11 | 6.07 | < 4.60
2 | Hexanoyl-HSDAVFTDNYTRLQKQVAAKKYLQSIKNKRYGGPSSGAPPPS [Agonist P172] | 9.54 | 8.45 | 5.95 | 6.39 | 6.30
3 | Hexanoyl-HSDAVFTDNYTRLR[Aib]QVAAAKYLQSIKNKRYGGPSSGAPPPS [Agonist P263] | 10.15 | 9.42 | 11.72 | 5.57 | 6.20
4 | Hexanoyl-HSDAVFTDNYTRLRKQVAAKKYVQSIKNKRYGGPSSGAPPPS [Agonist P234] | 9.80 | 9.48 | 0.69 | 6.19 | 6.61
5 | Hexanoyl-HSDAVFTDNYTRLQ[Aib]QVAA[Aib]KYLQSIKNKRYGGPSSGAPPPS [Agonist P302] | 9.35 | 8.79 | 21.43 | < 5.52 | < 4.60
6 | CCCCCC(=O)N[C@@H](Cc1c[nH]cn1)C(=O)N[C@@H](CO)C(=O)N[C@@H](CC(=O)O)C(=O)N[C@@H](C)C(=O)N[C@H](C(=O)N[C@@H](Cc1ccccc1)C(=O)N[C@H](C(=O)N[C@@H](CC(=O)O)C(=O)N[C@@H](CC(N)=O)C(=O)N[C@@H](Cc1ccc(O)cc1)C(=O)N[C@H](C(=O)N[C@@H](CCCNC(=N)N)C(=O)N[C@@H](CC(C)C)C(=O)N[C@@H](CCCNC(=N)N)C(=O)NC(C)(C)C(=O)N[C@@H](CCC(N)=O)C(=O)N[C@H](C(=O)N[C@@H](C)C(=O)N[C@@H](C)C(=O)N[C@@H](CCCCN)C(=O)NC(C)(C)C(=O)N[C@@H](Cc1ccc(O)cc1)C(=O)N[C@@H](CC(C)C)C(=O)N[C@@H](CCC(N)=O)C(=O)N[C@@H](CO)C(=O)N[C@H](C(=O)N[C@@H](CCCCN)C(=O)N[C@@H](CCC(N)=O)C(=O)N[C@@H](CCCCN)C(=O)NCC(=O)NCC(=O)N1CCC[C@H]1C(=O)N[C@@H](CO)C(=O)N[C@@H](CO)C(=O)NCC(=O)N[C@@H](C)C(=O)N1CCC[C@H]1C(=O)N1CCC[C@H]1C(=O)N1CCC[C@H]1C(=O)N[C@@H](CO)C(=O)O)[C@@H](C)CC)C(C)C)[C@@H](C)O)[C@@H](C)O)C(C)C [Agonist P295] (Hexanoyl-HSDAVFTDNYTRLR[Aib]QVAAK[Aib]YLQSIKQKGGPSSGAPPPS-OH; C-terminus assumed) | 9.41 | 9.12 | 22.22 | < 5.52 | < 4.60
7 | Hexanoyl-HSDAVFTDNYTRLRKQVAAKKYIQSIKNKRYGGPSSGAPPPS [Agonist P233] | 9.96 | 9.51 | 1.27 | 6.49 | 6.49
8 | Hexanoyl-HSDAVFTDNYTRLRKQVAAKKYWQSIKNKRYGGPSSGAPPPS [Agonist P230] | 9.52 | 9.12 | 0.53 | 6.18 | 6.33
9 | Hexanoyl-HSDAVFTDNYTRLRKQVAAKKYLQSIKNKRYGGPSSGAPPPC [Agonist P120] | 10.22 | 9.36 | 5 |  | 6.24
10 | Hexanoyl-HSDAVFTDNYTRLRKQVAAKAYLQSIKNKRYGGPSSGAPPPS [Agonist P184] | 9.66 | 9.64 | 0.29 | 6.49 | 6.47
11 | Hexanoyl-HSDAVFTDNYTRLRKQVAAKKYFQSIKNKRYGGPSSGAPPPS [Agonist P231] | 9.59 | 9.26 | 0.57 | 6.34 | 6.52
12 | Hexanoyl-HSDAVFTDNYTRLRKQVAAKKY[Aib]QSIKNKRYGGPSSGAPPPS [Agonist P236] | 9.92 | 9.43 | 0.79 | 6.23 | 6.65
13 | Hexanoyl-HSDAVFTDNYTRLQKQVAAK[Aib]YLQSIKNKRYGGPSSGAPPPS [Agonist P251] | 9.04 | 8.63 | 6.63 | < 5.52 | < 4.60
14 | Hexanoyl-HSDAVFTDNYTRLRKQVAAAKYLQSIKNKRYGGPSSGAPPPS [Agonist P181] | 9.89 | 9.54 | <0.53 | 6.49 | 6.28
15 | Hexanoyl-HSDAVFTKNYTRLRKQVAAKKYLQSIKNKRYGGPSSGAPPPS [Agonist P160] | 7.88 | 8.32 | <4.25 | 7.30 | 6.58
16 | Hexanoyl-HSDAVFTDNYTRLRK(Ac)QVAAKK(Ac)YLQSIKNKRYGGPSSGAPPPS [Agonist P194] | 9.89 | 9.55 | 1.11 | 6.76 | 6.20
17 | Hexanoyl-HSDAVFTDNYTRL[Aib]KQVAAKKYLQSIKNKRYGGPSSGAPPPS [Agonist P167] | 9.77 | 8.94 | 14.98 | 5.94 | 6.00
18 | Hexanoyl-HSDAVFTDNYTRLQKQVAAQKYLQSIKNKRYGGPSSGAPPPS [Agonist P252] | 9.59 | 9.01 | 1.19 | 5.93 | < 4.60
19 | CCCCCC(=O)N[C@@H](Cc1c[nH]cn1)C(=O)N[C@@H](CO)C(=O)N[C@@H](CC(=O)O)C(=O)N[C@@H](C)C(=O)N[C@H](C(=O)N[C@@H](Cc1ccccc1)C(=O)N[C@H](C(=O)N[C@@H](CC(=O)O)C(=O)N[C@@H](CC(N)=O)C(=O)N[C@@H](Cc1ccc(O)cc1)C(=O)N[C@H](C(=O)N[C@@H](CCCNC(=N)N)C(=O)N[C@@H](CC(C)C)C(=O)NC(C)(C)C(=O)N[C@@H](CCCCN)C(=O)N[C@@H](CCC(N)=O)C(=O)N[C@H](C(=O)N[C@@H](C)C(=O)N[C@@H](C)C(=O)NC(C)(C)C(=O)N[C@@H](CCCCN)C(=O)N[C@@H](Cc1ccc(O)cc1)C(=O)N[C@@H](CC(C)C)C(=O)N[C@@H](CCC(N)=O)C(=O)N[C@@H](CO)C(=O)N[C@H](C(=O)N[C@@H](CCCCN)C(=O)N[C@@H](CCC(N)=O)C(=O)NCC(=O)NCC(=O)N1CCC[C@H]1C(=O)N[C@@H](CO)C(=O)N[C@@H](CO)C(=O)NCC(=O)N[C@@H](C)C(=O)N1CCC[C@H]1C(=O)N1CCC[C@H]1C(=O)N1CCC[C@H]1C(=O)N[C@@H](CO)C(=O)O)[C@@H](C)CC)C(C)C)[C@@H](C)O)[C@@H](C)O)C(C)C [Agonist P296] (Hexanoyl-HSDAVFTDNYTRL[Aib]KQVAA[Aib]KYLQSIKQGGPSSGAPPPS-OH; C-terminus assumed) |  | < 7.00 | 42.26 | < 5.52 | < 4.60
20 | Hexanoyl-HSDAVFTDNYTRL[Aib]KQVAALKYLQSIKNKRYGGPSSGAPPPS [Agonist P259] |  | 7.88 | 17.65 | 5.46 | < 5.52
